ChEMBL document CHEMBL6092220 (J Med Chem, 2024)
pIC50: −log10 of the molar value. The source made the active and inactive calls. No cut-off for these calls is given here.

Columns and labels:
[1] = target: T1, Protein cereblon/Signal transducer and activator of transcription 3 (Homo sapiens, UniProt P40763+Q96SW2); test: PROTAC activity at his-SUMO-tagged STAT3 (127 to 688 residues)/CRBN in human HeLa cells assessed as induction of STAT3 degradation incubated for 24 hrs by TECAN SPARK microplate reader analysis; type: cell-based
[2] = target: T2, Protein cereblon/Signal transducer and activator of transcription 3 (Mus musculus) (UniProt P42227+Q8C7D2); test: In-vivo PROTAC activity at STAT3/CRBN in female CB17 SCID mouse assessed as reduction STAT3 level spleen at 10 mg/kg, iv measured at 24 hrs by Western blot analysis; type: functional, organism-based; parameters: scale not given: the % may be the effect or the level left
[3] = Clearance in ICR mouse assessed as hepatic blood flow at 5 mg/kg, iv; type: ADME, organism-based; details: in vivo
[4] = Clearance in Sprague-Dawley rat assessed as hepatic blood flow at 5 mg/kg, iv; type: ADME, organism-based; details: in vivo
[5] = Apparent volume of distribution in Beagle dog at 1 mg/kg, iv; type: ADME, organism-based, Canis lupus familiaris; details: in vivo, read-out: Vz
[6] = Clearance in Beagle dog assessed as hepatic blood flow at 1 mg/kg, iv; type: ADME, organism-based, Canis lupus familiaris; details: in vivo
[7] = Plasma protein binding in human assessed as unbound fraction at 10 uM; type: ADME, cell-free
[8] = target: T1, Protein cereblon/Signal transducer and activator of transcription 3; test: PROTAC activity at his-SUMO-tagged STAT3 (127 to 688 residues)/CRBN in human PBMC cells assessed as reduction in STAT3 level at 0.1 to 4000 nM incubated for 20 hrs by Western blot analysis relative to control; type: cell-based; details: dose 0.1-4000 nM
[9] = target: T3, Protein cereblon/Signal transducer and activator of transcription 4 (Homo sapiens, UniProt Q96SW2+Q14765); test: PROTAC activity at STAT4/CRBN in human PBMC cells assessed as reduction in STAT4 level incubated for 20 hrs by Western blot analysis; type: cell-based
[10] = target: Protein cereblon/Signal transducer and activator of transcription 2 (Homo sapiens) (UniProt Q96SW2+P52630); test: PROTAC activity at STAT2/CRBN in human PBMC cells assessed as reduction in STAT2 level upto 40 uM incubated for 20 hrs by Western blot analysis; type: cell-based
[11] = Apparent permeability across apical to basolateral side in human Caco-2 cells; type: ADME, cell-based
[12] = target: hERG (KCNH2) (Homo sapiens, UniProt Q12809); test: Inhibition of hERG at 30 uM relative to control; type: toxicity
[13] = Stability in mouse Hepatocyte assessed as half life; type: ADME, cell-based; details: hepatocytes
[14] = Stability in mouse plasma assessed as half life; type: ADME, cell-free
[15] = Stability in rat plasma assessed as half life; type: ADME, cell-free
[16] = Stability in dog plasma assessed as half life; type: ADME, cell-free, Canis lupus familiaris
[17] = Stability in human plasma assessed as half life; type: ADME, cell-free
[18] = Stability in mouse plasma assessed as parent compound remaining at […]; type: ADME, cell-free; details: read-out: Stability
[19] = Stability in dog plasma assessed as parent compound remaining at […]; type: ADME, cell-free, Canis lupus familiaris; details: read-out: Stability
[20] = target: Cytochrome P450 1A2 (Homo sapiens, UniProt P05177); test: Inhibition of CYP1A2 (unknown origin); type: ADME
[21] = target: Cytochrome P450 2C8 (Homo sapiens, UniProt P10632); test: Inhibition of CYP2C8 (unknown origin); type: ADME
[22] = target: T3, Protein cereblon/Signal transducer and activator of transcription 4; test: PROTAC activity at STAT4/CRBN in human SU-DHL-1 cells assessed as reduction in STAT4 level incubated for 20 hrs by Western blot analysis; type: cell-based; details: dose <= 40.0 µM
[23] = target: T4, Protein cereblon/Signal transducer and activator of transcription 6 (Homo sapiens) (UniProt P42226+Q96SW2); test: PROTAC activity at STAT6/CRBN in human SU-DHL-1 cells assessed as reduction in STAT6 level incubated for 20 hrs by Western blot analysis; type: cell-based
[24] = system: MOLM16; test: PROTAC activity at STAT5/CRBN in human MOLM16 cells assessed as reduction in STAT5 level upto 40 uM incubated for 4 hrs by Western blot analysis; type: cell-based
[25] = target: T4, Protein cereblon/Signal transducer and activator of transcription 6 (Homo sapiens); test: PROTAC activity at STAT6/CRBN in human MOLM16 cells assessed as reduction in STAT6 level incubated for 4 hrs by Western blot analysis; type: cell-based
[26] = target: Protein cereblon/Signal transducer and activator of transcription 1-alpha/beta (Homo sapiens, UniProt P42224+Q96SW2); test: PROTAC activity at STAT1/CRBN in human Pfeiffer cells transfected with STAT3 K658R mutant assessed as reduction in STAT1 level upto 40 uM incubated for 20 hrs by Western blot analysis; type: cell-based
[27] = target: T1, Protein cereblon/Signal transducer and activator of transcription 3; test: PROTAC activity at his-SUMO-tagged STAT3 (127 to 688 residues)/CRBN in human MOLM16 cells assessed as reduction in STAT3 level upto 40 uM incubated for 4 hrs by Western blot analysis relative to control; type: cell-based; parameters: scale not given: the % may be the effect or the level left
[28] = target: T1, Protein cereblon/Signal transducer and activator of transcription 3; test: PROTAC activity at his-SUMO-tagged STAT3 (127 to 688 residues)/CRBN in human Pfeiffer cells assessed as reduction in STAT3 level upto 40 uM incubated for 4 hrs by Western blot analysis relative to control; type: cell-based; parameters: scale not given: the % may be the effect or the level left
[29] = target: T5, Signal transducer and activator of transcription 3 (Homo sapiens, UniProt P40763); test: Binding affinity to STAT3 (unknown origin) by FP assay
[30] = target: T5, Signal transducer and activator of transcription 3; test: Binding affinity to STAT3 (unknown origin) assessed as maximum inhibition by FP assay relative to control
[31] = target: Signal transducer and activator of transcription 6 (Homo sapiens) (UniProt P42226); test: Binding affinity to STAT6 (unknown origin) assessed as maximum inhibition by FP assay relative to control
[32] = target: T2, Protein cereblon/Signal transducer and activator of transcription 3 (Mus musculus); test: In-vivo PROTAC activity at STAT3/CRBN in female CB17 SCID mouse assessed as STAT3 depletion liver at 5 mg/kg, iv measured upto 72 hrs by immunobloting analysis; type: functional, organism-based
[33] = Drug concentration in female CB17 SCID mouse plasma at 5 mg/kg, iv measured at 1 hr by LC-MS/MS analysis; type: ADME, organism-based
[34] = Drug concentration in female CB17 SCID mouse plasma at 5 mg/kg, iv measured at 24 hrs by LC-MS/MS analysis; type: ADME, organism-based
[35] = Drug concentration in female CB17 SCID mouse liver at 5 mg/kg, iv measured at 6 hrs by LC-MS/MS analysis; type: ADME, organism-based; details: read-out: Ct
[36] = Drug concentration in female CB17 SCID mouse spleen at 5 mg/kg, iv measured at 48 hrs by LC-MS/MS analysis; type: ADME, organism-based; details: read-out: Ct
[37] = Drug concentration in female CB17 SCID mouse tumor at 5 mg/kg, iv measured at 6 hrs by LC-MS/MS analysis; type: ADME, organism-based, Neoplasm; details: read-out: Ct
[38] = Antitumor activity against human MOLM16 cells xenografted in mouse assessed as tumor regression at 10 to 20 mg/kg, iv; type: functional, MOLM-16; details: dose 10-20 mg/kg
[39] = Toxicity in mouse at 5 to 20 mg/kg, iv; type: organism-based; details: in vivo, dose 5-20 mg/kg
[40] = Antitumor activity against human MOLM16 cells xenografted in mouse assessed as tumor regression at 25 mg/kg, iv; type: functional, MOLM-16

COC(=O)N1CC[C@H]2CC[C@@H](C(=O)N[C@@H](CCC(N)=O)C(=O)N[C@@H](Cc3ccc(F)c(F)c3)C(=O)N3CCC(CCC#Cc4cccc5c4CN(C4CCC(=O)NC4=O)C5=O)CC3)N2C(=O)[C@@H](NC(=O)c2cc3cc(C(F)(F)P(=O)(O)O)ccc3s2)C1 (stereo not given in full)
DC50 [1]: 0.5 µM | Activity [2]: > 90% | QH [3]: 0.1% | QH [4]: 2.6% | Vd [5]: 0.29 L/kg | QH [6]: 2.7% | Fu [7]: 0.5% | Emax [8]: > 95% | DC50 [9]: 1.6 µM | Activity [10]: inactive | Papp [11]: 0.14 10^-6 cm/s | inhibition at 30 µM [12]: 1.1% | t1/2 [13]: > 2 h | t1/2 [14]: > 2 h | t1/2 [15]: > 2 h | t1/2 [16]: > 2 h | t1/2 [17]: > 2 h | remaining at 2 h [18]: 101% | remaining at 2 h [19]: 89% | pIC50 [20]: < 5.00 | pIC50 [21]: < 5.00 | Activity [22]: Dose-dependent-effect | Activity [23]: Active | Activity [24]: inactive | Activity [25]: inactive | Activity [26]: inactive | Activity [27]: > 95% | Activity [28]: > 95% | pIC50 [29]: 7.72 | Imax [30]: 100% | Imax [31]: 10% | Activity [32]: Active | concentration at 1 h [33]: 47300 ng/mL | concentration at 24 h [34]: 17100 ng/mL | concentration at 6 h [35]: 3570 ng/g | concentration at 48 h [36]: 615 ng/g | concentration at 6 h [37]: 3150 ng/g | Activity [38]: 100% | Activity [39]: Non-toxic | Activity [40]: 100%
